Measurements from publication PMC7879702 (Antiviral research, 2020).
pEC50, pIC50: −log10 of the molar value.

Key:
EBOV = format: cell-based, Ebola virus; details: read-out: EC50, EBOV infection
GAK = details: at 10 μM; cited from earlier work
BIKE = details: cited from earlier work
[1] = tested on: primary human monocyte derived dendritic cells (MDDC)
AAK1 = details: at 10 μM; cited from earlier work
phospho-AP2M1 (T156) = format: cell-based
DENV [2] = format: cell-based, dengue virus; details: read-out: EC50, DENV infection in MDDC
TAK1 = details: read-out: IC50, TAK1; cited from earlier work
ERK2 = details: read-out: IC50, ERK2; cited from earlier work
VEEV (TC-83) = format: cell-based, Venezuelan equine encephalitis virus; details: read-out: EC50, VEEV (TC-83) infection
DENV2 [3] = format: cell-based, dengue virus; details: read-out: EC50, DENV2 infection
DENV [4] = format: cell-based; details: BIKE-inducible T-REx-293 cells, doxycycline induction, 72 hours treatment
DENV2 [5] = format: cell-based, dengue virus

Q: With `COc1cc(O)c2c(c1)/C=C/C[C@H](O)[C@H](O)C(=O)/C=C\C[C@H](C)OC2=O` [5Z-7-oxozeaenol] as the molecule, how does the “cellular toxicity in the EBOV assay” value (Huh7 cells) read?
A: no apparent cellular toxicity within the concentration range tested

Q: And the pEC50 (EBOV)?
A: 5.39

Q: And the “KINOMEscan binding, GAK” value (GAK)?
A: 10 % of control

Q: And the “KINOMEscan binding, BIKE” value (BIKE; at 10 μM)?
A: 3.8 % of control

Q: What about the pIC50 (BIKE; read-out: IC50 value for BIKE inhibition or binding (Discussion)) of the same molecule?
A: 8.42

Q: What about the CC50 [1] of the same molecule?
A: 5490 nM

Q: What about the “KINOMEscan binding, AAK1” value (AAK1) of the same molecule?
A: 13 % of control

Q: And the “effect on AP2M1 phosphorylation” value (phospho-AP2M1 (T156))?
A: dramatic reduction in AP2M1 phosphorylation

Q: What about the “effect on phospho-AP2M1 level at 10 μM” value (phospho-AP2M1 (T156)) of the same molecule?
A: significant reduction

Q: What about the pEC50 (DENV [2]) of the same molecule?
A: 6.27

Q: And the pIC50 (TAK1)?
A: 8.10

Q: And the pIC50 (ERK2)?
A: 7.10

Q: And the pEC50 (VEEV (TC-83))?
A: 5.59

Q: And the pEC50 (DENV2 [3])?
A: 5.61

Q: What about the “DENV infection upon BIKE expression in drug-treated cells” value (DENV [4]) of the same molecule?
A: partially restored

Q: For `C[C@@H]1C[C@@H]([C@H](O)CC2CC(=O)NC(=O)C2)C(=O)[C@@H](C)C1` [cycloheximide], which “effect on viral infection at 6 hours postinfection” value (DENV2 [5]) is on record?
A: suppressed viral infection
